Measured values published in paper PMC8253220, “Molecular design, synthesis and in vitro biological evaluation of thienopyrimidine–hydroxamic acids as chimeric kinase HDAC inhibitors: a challenging approach to combat cancer” (Journal of Enzyme Inhibition and Medicinal Chemistry, 2021).
Values joined by “and” are separate entries in the source; they are usually repeats but may differ in a detail not shown here. Equal entries are not always repeated.

Experiments:
SN12C = experiment: NCI one-dose screen; type: cell-based, human; settings: Renal SN12C, 10 µM single dose
Method in brief: (§1)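 One concentration (10 μM) applied to each line of the full NCI-60 panel; percent growth compared against untreated cells.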

U251 = experiment: NCI one-dose screen; type: cell-based, human; settings: for Growth Percent: CNS U251, 10 µM single dose
Method in brief: (§2)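 Each cell line received compound at 10 μM as part of the NCI one-dose protocol. Values reflect growth inhibition percent calculated from growth relative to untreated controls.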

MDA-MB-435 = experiment: NCI one-dose screen; type: cell-based, human; settings: Melanoma MDA-MB-435, 10 µM single dose
Method in brief: as §1

K-562 = experiment: NCI one-dose screen; type: cell-based, human; settings: Leukemia K-562, 10 µM single dose
Method in brief: as §1

NCI-H460 = experiment: NCI one-dose screen; type: cell-based, human; settings: NSCLC NCI-H460, 10 µM single dose
Method in brief: as §1

HCT-15 = experiment: NCI one-dose screen; type: cell-based, human; settings: Colon HCT-15, 10 µM single dose
Method in brief: as §1

MDA-MB-468 = experiment: NCI one-dose screen; type: cell-based, human; settings: Breast MDA-MB-468, 10 µM single dose
Method in brief: (§3)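 Compounds were tested at a single dose of 10 μM across the full NCI-60 cell line panel. Growth was expressed as percent growth relative to untreated control cells, reported as percent inhibition.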

NCI/ADR-RES = experiment: NCI one-dose screen; type: cell-based, human; settings: Ovarian NCI/ADR-RES, 10 µM single dose
Method in brief: as §1

OVCAR-8 = experiment: NCI one-dose screen; type: cell-based, human; settings: Ovarian OVCAR-8, 10 µM single dose
Method in brief: as §1

SK-MEL-28 = experiment: NCI one-dose screen; type: cell-based, human; settings: Melanoma SK-MEL-28, 10 µM single dose
Method in brief: (§4)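 At 10 μM, a single concentration, compounds were evaluated for antiproliferative effect in the NCI 60-line screen, with growth expressed relative to untreated control cells.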

HL-60(TB) = experiment: NCI one-dose screen; type: cell-based, human; settings: Leukemia HL-60(TB), 10 µM single dose
Method in brief: as §4

OVCAR-4 = experiment: NCI one-dose screen; type: cell-based, human; settings: Ovarian OVCAR-4, 10 µM single dose
Method in brief: as §1

CCRF-CEM = experiment: NCI one-dose screen; type: cell-based, human; settings: Leukemia CCRF-CEM, 10 µM single dose
Method in brief: as §1

SNB-75 = experiment: NCI one-dose screen; type: cell-based, human; settings: for Growth Percent: CNS SNB-75, 10 µM single dose
Method in brief: as §2

NCI-H23 = experiment: NCI one-dose screen; type: cell-based, human; settings: for Growth Percent: NSCLC NCI-H23, 10 µM single dose
Method in brief: as §3

UO-31 = experiment: NCI one-dose screen; type: cell-based, human; settings: for Growth Percent: Renal UO-31, 10 µM single dose
Method in brief: as §2

SK-MEL-5 = experiment: NCI one-dose screen; type: cell-based, human; settings: Melanoma SK-MEL-5, 10 µM single dose
Method in brief: as §1

HT29 = experiment: NCI one-dose screen; type: cell-based, human; settings: Colon HT29, 10 µM single dose
Method in brief: as §1

NCI-H322M = experiment: NCI one-dose screen; type: cell-based, human; settings: NSCLC NCI-H322M, 10 µM single dose
Method in brief: as §1

OVCAR-5 = experiment: NCI one-dose screen; type: cell-based, human; settings: Ovarian OVCAR-5, 10 µM single dose
Method in brief: as §1

PC-3 = experiment: NCI one-dose screen; type: cell-based, human; settings: Prostate PC-3, 10 µM single dose
Method in brief: as §4

BT-549 = experiment: NCI one-dose screen; type: cell-based, human; settings: Breast BT-549, 10 µM single dose
Method in brief: as §1

EGFR = EGFR (Homo sapiens, UniProt P00533); experiment: In vitro EGFR tyrosine kinase inhibitory assay (Z'-LYTE, SelectScreen); type: biochemical; settings: 10 µM single dose
Method in brief: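 Z'-LYTE fluorescence coupled-enzyme format, read-out based on differential protease cleavage of phosphorylated vs non-phosphorylated peptide. Compounds screened at 10 µM single dose for % inhibition, then selected ones tested at 0.1 nM–10 µM for IC50 by curve fitting.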

full NCI 60 cell panel = experiment: NCI one-dose screen, whole panel statistics; type: cell-based, human; settings: 1.00E-5 Molar; for Mean Growth Percent: mean over panel
Method in brief: as §4

Sequence of EGFR (P00533 25-1210): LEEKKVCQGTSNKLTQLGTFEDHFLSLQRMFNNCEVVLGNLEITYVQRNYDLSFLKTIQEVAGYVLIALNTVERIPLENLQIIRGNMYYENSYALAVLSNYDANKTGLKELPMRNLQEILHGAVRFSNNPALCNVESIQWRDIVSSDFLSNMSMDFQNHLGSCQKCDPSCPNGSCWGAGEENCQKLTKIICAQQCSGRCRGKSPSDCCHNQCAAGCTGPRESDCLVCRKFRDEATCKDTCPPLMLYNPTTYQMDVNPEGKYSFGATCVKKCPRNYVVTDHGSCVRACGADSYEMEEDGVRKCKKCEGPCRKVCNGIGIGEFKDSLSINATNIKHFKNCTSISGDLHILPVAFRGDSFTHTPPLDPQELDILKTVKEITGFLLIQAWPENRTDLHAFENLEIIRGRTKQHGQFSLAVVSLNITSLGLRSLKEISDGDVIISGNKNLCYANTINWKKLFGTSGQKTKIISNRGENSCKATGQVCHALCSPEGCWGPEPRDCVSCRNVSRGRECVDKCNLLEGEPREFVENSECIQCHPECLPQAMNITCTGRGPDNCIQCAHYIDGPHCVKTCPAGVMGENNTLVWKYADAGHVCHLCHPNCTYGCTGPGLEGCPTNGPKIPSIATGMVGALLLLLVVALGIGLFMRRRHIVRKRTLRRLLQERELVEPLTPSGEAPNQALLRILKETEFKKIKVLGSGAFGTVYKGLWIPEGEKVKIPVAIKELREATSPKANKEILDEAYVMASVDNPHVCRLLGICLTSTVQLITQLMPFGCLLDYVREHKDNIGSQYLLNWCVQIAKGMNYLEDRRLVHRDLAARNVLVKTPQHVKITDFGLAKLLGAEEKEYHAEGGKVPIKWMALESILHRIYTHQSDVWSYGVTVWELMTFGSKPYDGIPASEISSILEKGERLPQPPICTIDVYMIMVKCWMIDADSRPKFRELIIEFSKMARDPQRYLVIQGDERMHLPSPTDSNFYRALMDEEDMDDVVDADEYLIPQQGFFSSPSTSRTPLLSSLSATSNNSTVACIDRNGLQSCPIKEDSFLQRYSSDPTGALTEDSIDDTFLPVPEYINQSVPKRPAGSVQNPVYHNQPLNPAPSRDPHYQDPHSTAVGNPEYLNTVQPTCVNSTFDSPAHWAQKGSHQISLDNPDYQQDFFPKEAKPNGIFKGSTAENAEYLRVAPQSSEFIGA

Row | Compound | Growth Percent (SN12C) | Growth Percent (U251) | Growth Percent (MDA-MB-435) | Growth Percent (K-562) | Growth Percent (NCI-H460) | Growth Percent (HCT-15) | Growth Percent (MDA-MB-468) | Growth Percent (NCI/ADR-RES) | Growth Percent (OVCAR-8) | Growth Percent (SK-MEL-28) | Growth Percent (HL-60(TB)) | Growth Percent (OVCAR-4) | Growth Percent (CCRF-CEM) | Growth Percent (SNB-75) | Growth Percent (NCI-H23) | Growth Percent (UO-31) | Growth Percent (SK-MEL-5) | Growth Percent (HT29) | Growth Percent (NCI-H322M) | Growth Percent (OVCAR-5) | further results
1 | Cc1c(C(=O)NCCCC(=O)NO)sc2ncnc(Nc3ccc(NC(=O)Nc4ccccc4)cc3)c12 [Compound 12a, 1–(4-(6-((4-(hydroxyamino)-4-oxobutyl)carbamoyl)-5-methylthieno[2,3-d]pyrimidin-4-ylamino)phenyl)-3-phenylurea] | 99.0% and 99.09% | 92.3% and 92.32% | 101.8% and 101.82% | 97.8% and 97.83% | 102.6% and 102.61% | 100.2% | 100.0% and 100.06% | 103.7% and 103.79% | 104.6% and 104.68% | 109.4% and 109.43% | 101.4% and 101.44% | 100.6% | 107.0% and 107.09% | 78.1% and 78.17% | 89.2% and 89.25% | 75.3% and 75.33% | 97.8% and 97.81% | 104.7% and 104.74% | 99.7% and 99.76% | 105.1% and 105.14% | Growth Percent (PC-3): 98.9% and 98.99%; Growth Percent (BT-549): 105.0% and 105.06%; inhibition at 10 µM (EGFR): 11%; Delta (one dose mean graph) (full NCI 60 cell panel): 25.38%; Range (one dose mean graph) (full NCI 60 cell panel): 46.43%; Mean Growth Percent (full NCI 60 cell panel): 100.71%; melting point: 219 °C
2 | Cc1c(C(=O)NCCC(=O)NO)sc2ncnc(Nc3ccc(F)c(Cl)c3)c12 [Compound 19d, 4–(3-chloro-4-fluorophenylamino)-N-(3-(hydroxyamino)-3-oxopropyl)-5-methylthieno[2,3-d]pyrimidine-6-carboxamide] | 102.7% and 102.77% | 102.2% and 102.27% | 101.8% and 101.82% | 113.3% | 100.4% and 100.44% | 101.5% and 101.58% | 102.7% and 102.77% | 101.4% and 101.46% | 101.3% and 101.35% | 111.5% and 111.54% | 102.8% | 108.8% and 108.82% | 105.2% and 105.23% | 97.5% | 100.6% | 84.8% and 84.81% | 101.8% and 101.85% | 104.1% | 108.1% and 108.11% | 108.4% and 108.42% | Growth Percent (PC-3): 103.5% and 103.52%; Growth Percent (BT-549): 113.9% and 113.96%; inhibition at 10 µM (EGFR): 96%; Delta (one dose mean graph) (full NCI 60 cell panel): 19.56%; Range (one dose mean graph) (full NCI 60 cell panel): 44.43%; Mean Growth Percent (full NCI 60 cell panel): 104.37%; melting point: 276 °C
3 | Cc1c(C(=O)NO)sc2ncnc(Nc3ccc(NC(=O)Nc4cccc(C(F)(F)F)c4)cc3)c12 [Compound 7c, 1–(4-(6-(hydroxycarbamoyl)-5-methylthieno[2,3-d]pyrimidin-4-ylamino)phenyl)-3–(3-(trifluoromethyl)phenyl)urea] | 97.89% | 73.1% and 73.13% | 100.6% and 100.67% | 91.7% and 91.72% | 101.7% and 101.73% | 97.7% and 97.77% | 109.16% | 97.6% and 97.66% | 100.4% and 100.41% | 108.2% and 108.23% | 102.0% and 102.08% | 103.4% and 103.45% | 101.6% | 54.0% and 54.04% | 88.9% and 88.92% | 75.7% and 75.79% | 99.6% and 99.67% | 97.2% and 97.28% | 99.6% and 99.69% | 114.3% and 114.33% | inhibition at 10 µM (U251; Homo sapiens, U-251, CNS U251, 10 μM): 26.9%; inhibition at 10 µM (SNB-75; Homo sapiens, CNS SNB-75, 10 μM): 46%; inhibition at 10 µM (NCI-H23; Homo sapiens, NSCLC NCI-H23, 10 μM): 11.1%; inhibition at 10 µM (UO-31; Homo sapiens, renal UO-31, 10 μM): 24.7%; Growth Percent (PC-3): 91.1% and 91.19%; Growth Percent (BT-549): 115.1% and 115.17%; inhibition at 10 µM (EGFR): 11%; Delta (one dose mean graph) (full NCI 60 cell panel): 43.18%; Range (one dose mean graph) (full NCI 60 cell panel): 65.35%; Mean Growth Percent (full NCI 60 cell panel): 97.22%; melting point: 285 °C
4 | Cc1c(C(=O)NO)sc2ncnc(Nc3cccc4[nH]cnc34)c12 [Compound 15a, 4-(1H-benzo[d]imidazol-4-ylamino)-N-hydroxy-5-methylthieno[2,3-d]pyrimidine-6-carboxamide] | 102.0% and 102.01% | 96.7% and 96.72% | 101.5% and 101.54% | 101.00% | 102.7% and 102.72% | 102.15% | 101.3% and 101.31% | 102.6% and 102.67% | 103.6% and 103.64% | 107.8% and 107.83% | 101.2% and 101.27% | 111.9% and 111.94% | 110.7% and 110.72% | 81.0% and 81.08% | 92.2% and 92.27% | 80.6% and 80.64% | 101.5% and 101.54% | 103.9% and 103.93% | 99.4% and 99.43% | 107.0% and 107.01% | Growth Percent (PC-3): 104.3% and 104.34%; Growth Percent (BT-549): 113.5% and 113.56%; inhibition at 10 µM (EGFR): 45%; Delta (one dose mean graph) (full NCI 60 cell panel): 22.48%; Range (one dose mean graph) (full NCI 60 cell panel): 43.89%; Mean Growth Percent (full NCI 60 cell panel): 103.12%; melting point: 280 °C
5 | Cc1c(C(=O)NCCC(=O)NO)sc2ncnc(Nc3ccc(NC(=O)Nc4ccccc4)cc3)c12 [Compound 11a, 1–(4-(6-((3-(hydroxyamino)-3-oxopropyl)carbamoyl)-5-methylthieno[2,3-d]pyrimidin-4-ylamino)phenyl)-3-phenylurea] | 101.4% and 101.42% | 96.9% and 96.93% | 102.2% and 102.21% | 108.3% and 108.34% | 101.8% and 101.81% | 95.7% and 95.77% | 101.3% and 101.31% | 99.0% and 99.07% | 101.0% and 101.03% | 105.1% and 105.11% | 103.5% and 103.58% | 101.4% and 101.41% | 106.8% and 106.84% | 79.7% and 79.72% | 96.1% and 96.12% | 83.7% and 83.77% | 99.1% and 99.18% | 104.0% and 104.03% | 101.2% and 101.26% | 106.2% and 106.26% | Growth Percent (PC-3): 101.7% and 101.73%; Growth Percent (BT-549): 104.9%; inhibition at 10 µM (EGFR): 12%; Delta (one dose mean graph) (full NCI 60 cell panel): 21.26%; Range (one dose mean graph) (full NCI 60 cell panel): 44.07%; Mean Growth Percent (full NCI 60 cell panel): 100.98%; melting point: 225 °C
